These results are taken from patent US8497266B2, “3-(3-pyrimidin-2-ylbenzyl)-1,2,4-triazolo[4,3-b]pyridazine derivatives as MET kinase inhibitors” (Merck Patent GmbH, priority 2008, dated 2013).

Test [1] has as its target T1, Met kinase (Homo sapiens, UniProt P08581). The test is described as follows: Met kinase inhibition, flashplate method (enzyme). The class given is biochemical. Details: 6His (N); purchased Upstate 14-526; host or cells: Sf21 insect cells (S. frugiperda), baculovirus. The text has this:
According to the manufacturer's data (Met, active, Upstate, catalogue No. 14-526), Met kinase is expressed for the purposes of protein production in insect cells (Sf21; S. frugiperda) and subsequent affinity-chromatographic purification as “N-terminal 6His-tagged” recombinant human protein in a baculovirus expression vector.
The test plates used are 96-well Flashplate® microtitre plates from Perkin Elmer (Cat. No. SMP200). The components of the kinase reaction described below are pipetted into the assay plate. The Met kinase and the substrate poly Ala-Glu-Lys-Tyr, (pAGLT, 6:2:5:1), are incubated for 3 hrs at room temperature with radioactively labelled ^33P-ATP in the presence and absence of test substances in a total volume of 100 μl. The reaction is terminated using 150 μl of a 60 mM EDTA solution. After incubation for a further 30 min at room temperature, the supernatants are filtered off with suction, and the wells are washed three times with 200 μl of 0.9% NaCl solution each time. The measurement of the bound radioactivity is carried out by means of a scintillation measuring instrument (Topcount NXT, Perkin-Elmer).
The full value used is the inhibitor-free kinase reaction. This should be approximately in the range 6000-9000 cpm. The pharmacological zero value used is staurosporin in a final concentration of 0.1 mM. The inhibitory values (IC50) are determined using the RS1_MTS program.
Kinase reaction conditions per well: • 30 μl of assay buffer • 10 μl of substance to be tested in assay buffer with 10% of DMSO • 10 μl of ATP (final concentration 1 μM cold, 0.35 μCi of ^33P-ATP) • 50 μl of Met kinase/substrate mixture in assay buffer; • (10 ng of enzyme/well, 50 ng of pAGLT/well) • Solutions used: • Assay buffer: • 50 mM HEPES • 3 mM magnesium chloride • 3 μM sodium orthovanadate • 3 mM manganese(II) chloride • 1 mM dithiothreitol (DTT) • pH=7.5 (to be set using sodium hydroxide) • Stop solution: • 60 mM Titriplex III (EDTA) • ^33P-ATP: Perkin-Elmer; • Met kinase: Upstate, Cat. No. 14-526, Stock 1 μg/10 μl; spec. activity 954 U/mg; • Poly-Ala-Glu-Lys-Tyr, 6:2:5:1: Sigma Cat. No. P1152 In-Vivo Tests
Target sequence in this assay (P08581 956-1390 limits assumed): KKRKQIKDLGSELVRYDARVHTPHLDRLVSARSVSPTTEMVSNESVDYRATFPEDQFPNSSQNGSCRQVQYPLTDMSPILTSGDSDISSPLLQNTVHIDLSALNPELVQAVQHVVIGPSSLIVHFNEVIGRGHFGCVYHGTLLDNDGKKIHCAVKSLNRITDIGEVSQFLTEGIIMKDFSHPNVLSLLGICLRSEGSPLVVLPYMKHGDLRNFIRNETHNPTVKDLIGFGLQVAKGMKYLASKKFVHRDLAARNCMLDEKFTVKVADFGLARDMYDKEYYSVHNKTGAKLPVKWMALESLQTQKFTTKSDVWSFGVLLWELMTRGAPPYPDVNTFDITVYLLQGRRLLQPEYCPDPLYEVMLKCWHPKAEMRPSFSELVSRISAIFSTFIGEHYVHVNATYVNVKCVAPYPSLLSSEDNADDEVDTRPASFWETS

For test [2], the target named is T1, Met kinase. Nature of the test: Met kinase inhibition (cell). Type of test: cell-based.
Target sequence in this assay (P08581 25-1390): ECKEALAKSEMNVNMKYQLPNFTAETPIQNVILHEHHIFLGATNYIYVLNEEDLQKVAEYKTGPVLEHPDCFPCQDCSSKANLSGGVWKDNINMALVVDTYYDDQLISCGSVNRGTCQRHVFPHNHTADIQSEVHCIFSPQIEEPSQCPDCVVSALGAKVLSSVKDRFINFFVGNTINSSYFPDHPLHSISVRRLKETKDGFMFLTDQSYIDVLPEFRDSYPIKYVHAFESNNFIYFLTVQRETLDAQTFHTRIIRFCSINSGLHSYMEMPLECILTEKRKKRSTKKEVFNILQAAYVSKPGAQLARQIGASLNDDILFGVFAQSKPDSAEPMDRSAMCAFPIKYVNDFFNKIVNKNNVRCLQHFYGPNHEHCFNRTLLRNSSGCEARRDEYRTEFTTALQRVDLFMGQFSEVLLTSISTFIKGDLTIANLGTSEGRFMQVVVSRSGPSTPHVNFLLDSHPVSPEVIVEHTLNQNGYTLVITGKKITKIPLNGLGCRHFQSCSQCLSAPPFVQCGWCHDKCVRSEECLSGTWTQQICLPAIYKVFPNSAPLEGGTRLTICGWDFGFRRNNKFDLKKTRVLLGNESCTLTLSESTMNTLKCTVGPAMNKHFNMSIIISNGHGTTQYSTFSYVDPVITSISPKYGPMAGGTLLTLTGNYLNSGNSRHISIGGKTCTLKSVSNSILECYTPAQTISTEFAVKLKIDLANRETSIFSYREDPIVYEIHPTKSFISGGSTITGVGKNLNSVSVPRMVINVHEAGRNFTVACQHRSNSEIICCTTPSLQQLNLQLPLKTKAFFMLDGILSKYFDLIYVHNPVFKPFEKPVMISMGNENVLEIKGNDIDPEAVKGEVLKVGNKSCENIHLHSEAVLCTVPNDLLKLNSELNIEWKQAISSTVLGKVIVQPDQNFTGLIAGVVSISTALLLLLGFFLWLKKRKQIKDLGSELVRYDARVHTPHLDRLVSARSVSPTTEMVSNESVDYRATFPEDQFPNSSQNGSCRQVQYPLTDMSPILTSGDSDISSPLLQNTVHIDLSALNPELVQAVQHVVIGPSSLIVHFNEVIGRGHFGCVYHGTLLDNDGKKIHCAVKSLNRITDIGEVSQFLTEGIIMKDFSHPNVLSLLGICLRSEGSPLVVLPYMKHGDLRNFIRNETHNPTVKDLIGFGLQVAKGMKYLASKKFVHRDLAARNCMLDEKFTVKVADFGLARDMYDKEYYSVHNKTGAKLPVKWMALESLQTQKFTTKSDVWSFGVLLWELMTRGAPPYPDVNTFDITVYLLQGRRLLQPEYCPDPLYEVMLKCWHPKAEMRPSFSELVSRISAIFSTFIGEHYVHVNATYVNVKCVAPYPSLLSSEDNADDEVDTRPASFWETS

The term IC50 denotes the concentration needed to halve the response being measured. Low values mean inhibition by little substance, high ones a need for much substance. On to `CN1CCN(c2cnc(-c3cccc(Cc4nnc5ccc(-c6cnn(C)c6)nn45)c3)nc2)CC1` [Compound A11, 3-{3-[5-(4-methylpiperazin-1-yl)pyrimidin-2-yl]benzyl}-6-(1-methyl-1H-pyrazol-4-yl)-1,2,4-triazolo[4,3-b]pyridazine], for which the IC50 at Met kinase [1] and against Met kinase [2] was 1 to 100 nM each time.
`Cc1ccc2nnc(C(F)(F)c3cccc(-c4ncc(N5CCN(C)CC5)cn4)c3)n2n1` [Compound A25]: the IC50 against Met kinase [1] and against Met kinase [2] was 1 to 100 nM throughout.
For the compound `Cn1cc(-c2ccc3nnc(C4(c5cccc(-c6ncc(-c7cnn(CCN8CCCC8)c7)cn6)c5)CC4)n3n2)cn1` [Compound A8], the IC50 against Met kinase [1] and against Met kinase [2] was 1 to 100 nM throughout.
As for `N#Cc1cccc(-c2ccc3nnc(Cc4cccc(-c5ncc(-c6cnn(CCN7CCCC7)c6)cn5)c4)n3n2)c1` [Compound A20], the IC50 against Met kinase [1] and against Met kinase [2] was 1 to 100 nM in each case.
For the compound `OCCn1cc(-c2ccc3nnc(Cc4cccc(-c5ncc(Br)cn5)c4)n3n2)cn1` [Compound A43, 2-(4-{3-[3-(5-bromopyrimidin-2-yl)benzyl]-1,2,4-triazolo-[4,3-b]pyridazin-6-yl}pyrazol-1-yl)ethanol], the IC50 at Met kinase [1] and on Met kinase [2] was 1 to 100 nM each time.
Regarding `Cn1cc(-c2ccc3nnc(Cc4cccc(-c5ncc(Br)cn5)c4)n3n2)cn1` [Compound A1, 3-[3-(5-bromopyrimidin-2-yl)benzyl]-6-(1-methyl-1H-pyrazol-4-yl)-1,2,4-triazolo[4,3-b]pyridazine], the IC50 at Met kinase [1] and at Met kinase [2] was 1 to 100 nM throughout.
`Cc1ccc2nnc(C(F)(F)c3cccc(-c4ncc(-c5cnn(CCN6CCCC6)c5)cn4)c3)n2n1` [Compound A21]: the IC50 against Met kinase [1] and against Met kinase [2] was 1 to 100 nM throughout.
With `Cn1cc(-c2ccc3nnc(C(F)(F)c4cccc(-c5ncccn5)c4)n3n2)cn1` [Compound A26, 3-[difluoro-(3-pyrimidin-2-ylphenyl)methyl]-6-(1-methyl-1H-pyrazol-4-yl)-1,2,4-triazolo[4,3-b]pyridazine], the IC50 against Met kinase [1] and against Met kinase [2] was 1 to 100 nM each time.
In the case of `Cn1cc(-c2ccc3nnc(C4(c5cccc(-c6ncc(Br)cn6)c5)CC4)n3n2)cn1` [Compound A4], the IC50 against Met kinase [1] is 1 to 100 nM; against Met kinase [2], 100 to 10000 nM.
